Laboratory results reported in paper PMC8913318 (The Journal of Biological Chemistry, 2022).
Entries after “also recorded” stand apart in the source; their conditions may differ. Where two headings read alike, the source gives them in different places.

Legend:
[1] = target: T1, CYP168A1 (Pseudomonas aeruginosa, UniProt Q9I107); test: Ligand Kd determination by optical difference spectroscopy; type: binding; conditions: for Δ absorbance maxima: 1 μM CYP168A1
T1 sequence (Q9I107 1-444): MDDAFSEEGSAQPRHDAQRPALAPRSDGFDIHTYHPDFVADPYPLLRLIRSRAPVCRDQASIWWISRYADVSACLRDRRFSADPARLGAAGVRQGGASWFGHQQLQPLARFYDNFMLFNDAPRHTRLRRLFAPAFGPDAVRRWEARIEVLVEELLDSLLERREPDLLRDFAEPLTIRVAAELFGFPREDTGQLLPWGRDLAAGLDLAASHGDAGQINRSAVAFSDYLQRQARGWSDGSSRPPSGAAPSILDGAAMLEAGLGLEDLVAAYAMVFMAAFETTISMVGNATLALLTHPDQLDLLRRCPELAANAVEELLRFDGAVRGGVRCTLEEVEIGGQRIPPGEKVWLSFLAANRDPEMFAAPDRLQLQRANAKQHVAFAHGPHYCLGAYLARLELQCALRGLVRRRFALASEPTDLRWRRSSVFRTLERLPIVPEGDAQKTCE

[2] = target: T1, CYP168A1; conditions: 19-HETE formation; substrate inhibition model
[3] = test system: P. aeruginosa; conditions: exposure of P. aeruginosa to arachidonic acid; cited from earlier work
[4] = target: T1, CYP168A1; test: biochemical; conditions: Ki ± SE, substrate inhibition constant
[5] = target: T1, CYP168A1; test: Recombinant CYP168A1 lauric acid in vitro metabolic assays; type: biochemical
[6] = ND = no spectral shift detected
[7] = lauric acid ω-1-hydroxylation, Hill fit (preferred model)

Row | Structure (SMILES) | Kd [1] [nM] | Δ absorbance maxima [1, 6] [AU] | other results
1 | CCCCC/C=C\C/C=C\C/C=C\C/C=C\CCCC(=O)O [Arachidonic acid] | 960 ± 70 | 0.058 | Vmax ± SE [2]: 220 pmol/min/nmol P450; increase in the minimum inhibitory concentration (MIC) for polymyxin B [3]: eightfold increase; Ki ([4]; 18-HETE formation): 16000 ± 8000 nM; Ki ([4]; 19-HETE formation): 13000 ± 8000 nM
2 | Clc1ccccc1C(c1ccccc1)(c1ccccc1)n1ccnc1 [Clotrimazole] | 3000 ± 400 | 0.053 | –
3 | CCCCCCCCCC(=O)O [Decanoic acid] | 21000 ± 4000 | 0.016 | –
4 | Clc1ccc(COC(Cn2ccnc2)c2ccc(Cl)cc2Cl)cc1 (stereo not shown) [Econazole] | 2500 ± 400 | 0.026 | –
5 | Clc1ccc(COC(Cn2ccnc2)c2ccc(Cl)cc2Cl)c(Cl)c1 (stereo not shown) [Miconazole] | 880 ± 180 | 0.036 | –
6 | CC(C)CCC[C@@H](C)[C@H]1CC[C@H]2[C@@H]3CC=C4C[C@@H](O)CC[C@]4(C)[C@H]3CC[C@]12C [cholesterol] | – | – | Spectral shift of the Soret band (difference spectrum type) ([1]; UV-visible titration of CYP168A1): no spectral changes; also recorded: did not exert any changes

Second part, led by results:

Row | Kd [1] [nM] | Δ absorbance maxima [1, 6] [AU] | Structure (SMILES) | other results
7 | – | 0.013 | CCCCCCCCCCCC(=O)O [Lauric acid] | Kd ([1]; read-out: Kd ± SE, 1 μM CYP168A1, 100 mM potassium phosphate pH 7.4, one binding site model, ND = no spectral shift detected): 1900 ± 300 nM; proportion of lauric acid metabolized to the ω-hydroxyl derivative ([5]; LC-MS analysis, spinach redox partners and NADPH): < 5%; n, cooperativity value for the substrate binding ([5]; lauric acid ω-1-hydroxylation, Hill fit): 1.5; S50 ± SE [5, 7]: 34 ± 2 µM; Vmax ± SE [5, 7]: 0.12 ± 0.004 nmol/min/nmol P450; Vmax ± SE ([5]; lauric acid ω-1-hydroxylation, Michaelis-Menten fit): 0.14 ± 0.006 nmol/min/nmol P450; Km ([5]; read-out: Km ± SE, lauric acid ω-1-hydroxylation to 11-hydroxylauric acid, Michaelis-Menten fit): 46 ± 5 µM
8 | 830 ± 150 | 0.048 | CCCCCCCCCCCCCC(=O)O [Myristic acid] | –
9 | 370 ± 70 | 0.099 | CCCCCCCC/C=C\CCCCCCCC(=O)O [Oleic acid] | –
10 | 210 ± 40 | 0.064 | CCCCCCCCCCCCCCCC(=O)O [Palmitic acid] | –
11 | 330 ± 70 | 0.078 | CCCCCCCCCCCCCCCCCC(=O)O [Stearic acid] | –
